Here are results for 2 compounds from publication PMC6695731, “Application of a Substrate-Mediated Selection with c-Src Tyrosine Kinase to a DNA-Encoded Chemical Library” (Molecules, 2019).

Assay [1] addresses T1, c-Src (Homo sapiens, UniProt P12931). The experiment in a line: ADP-Glo assay of compounds as c-Src substrates (ADP production). The format is biochemical. Here is the method: Hit molecules were initially characterized as substrates for c-Src using the luciferase-based ADP-Glo assay (Promega). All six molecules appeared to be efficient substrates for Src kinase.
Kinase reaction was performed as follows 1x kinase buffer (25 mM Tris-HCl (pH 7.5), 2 mM dithiothreitol (DTT), 0.1 mM Na3VO4, 10 mM MgCl2), 1 mM ATP, different concentrations (1 μM to 100 μM) of substrates (either off DNA or on DNA hit molecules), and 12 nM rSrc by incubation for 2 h at 30 °C. After that, distinct 55mers were annealed to each kinase reaction, as previously described. The annealed reactions were incubated with anti Pho-Tyr loaded protein G magnetic bead at RT for 30 min. After washing by three times 20 μL 1xPBST with 1 mg/mL BSA, 1 mg/mL tRNAs), the captured samples were eluted by 20 μL of 1 mM phenylphosphate. The resulting supernatant was then used as a template in qPCR.
After the kinase reaction was performed as previous section, the reaction mixture (5 μL) was incubated with 5 µL of ADP-Glo™ reagent at RT for 40 min and then add 10 µL of kinase detection reagent at RT for 1 h. The luminescence was measure by plate reader.
(In general: In ADP-Glo the light output rises with the ADP produced.)

Assay [2] addresses T1, c-Src. The experiment in a line: HPLC and LC/MS analysis of phosphorylation of the compound by c-Src. The format is biochemical. The method, then:
(§1) To confirm this, compounds were tested with an NADH-based, coupled enzyme assay that also detects ADP generation. […] This additionally supported that the ADP-Glo activity observed was due to activation of ATP hydrolysis and not phosphotransfer to these compounds.
(a) on-DNA binding affinity to c-Src measured by fluorescence polarization in the presence of ATP (100 µM). […] Peak identity was verified by LC/MS analysis (Figure S9). […]
Kina se R e a c t ion w it h 1µM Src
Figure S7. HPLC Analysis of LYNtide Phosphorylation. The kinase reaction was performed by incubating 200 µM LYNtide with Src in 1x kinase buffer (as outlined in section 4.6 NADH coupled assay, […]
with 1mM ATP) for 30 min. […] Peak […]
identities were verified by LC/MS. The peak at 19 minutes is an impurity in the LYNtide alkyne preparation, which was also phosphorylated. […]
[M+H ]+ cal cd. […] O OH […]
Figure S9. LC/MS analysis of SrcDEL10 Phosphorylation. […]
µM ATP and 0.3 µM c-Src at 30 C for 16 hours. […]
and 10 µM c-Src at 30 C for 16 hours. […]

Assay [3] addresses T1, c-Src. The experiment in a line: NADH-based coupled enzyme assay detecting ADP generation. The following applies: 1 mM ATP, 100 µM compound, 12 nM Src, 30 °C, 3 h. The format is biochemical. The method, then: as §1
Kinase reaction was performed as follows 1x kinase buffer (25 mM Tris-HCl (pH 7.5), 2 mM dithiothreitol (DTT), 0.1 mM Na3VO4, 10 mM MgCl2), 1 mM ATP, 100 μM peptides and 12 nM Src at 30 °C for 3 h. The kinase reaction mixture was incubated with 30 unit/mL lactic dehydrogenase (LDH), 20 unit/mL pyruvate kinase (PK), 2 mM phosphoenolpyruvate (PEP), and 1 mM NADH. The absorbance of NADH was monitored at 340 nm.
Figure S8. NADH Coupled Assay of Hit Molecules with c-Src. Samples were composed of 1 mM ATP,
100 µM putative substrate molecules, and 12 nM c-Src kinase at 30 C for 3 hours. Full method description
is provided in Methods and Materials 4.6 NADH assay.

Assay [4] deals with T1, c-Src. The experiment in a line: substrate-mediated selection of DNA conjugates (c-Src treatment, anti-phosphotyrosine pulldown), enrichment by qPCR. In kind it is biochemical. The following applies: purified DNA conjugates, with kinase treatment. Here is the method:
To mimic library selection conditions, a DNA-LYNtide construct was mixed with a control construct at a ratio of 1 to 500. This mixture was treated at 50 nM total DNA concentration with Src kinase and the selection was applied. We observed robust enrichment (2600-fold) and recovery (9%) of the LYNtide construct by qPCR (Figure S3).
We then questioned if SrcDEL10 was indeed selected from the library based on the ability to serve as a Src substrate and accept a phosphate.
For optimization of substrate-based selection, two unique 180-mer constructs were prepared by PCR, as previously described. Each contained two unique 20-mer sequences for specific amplification and detection in qPCR. One was prepared with an unmodified forward primer as a control. The other was prepared using a LYNtide 20-mer oligo conjugate as a primer.
Kinase reaction was performed as follows 1x kinase buffer (25 mM Tris-HCl (pH 7.5), 2 mM dithiothreitol (DTT), 0.1 mM Na3VO4, 10 mM MgCl2), 1 mM ATP, different concentrations (1 μM to 100 μM) of substrates (either off DNA or on DNA hit molecules), and 12 nM rSrc by incubation for 2 h at 30 °C. After that, distinct 55mers were annealed to each kinase reaction, as previously described. […]
Figure S3. […] In a model enrichment assay, enrichment for tyrosine kinase substrates was detected by qPCR of model 180-mer constructs. […]
In general terms: Quantitative PCR measures a nucleic acid by following its amplification.

Assay [5] deals with c-Src. To be noted: LYNtide kinetic parameters for Src; cited from earlier work.
Assay [6] deals with T1, c-Src. The experiment in a line: on-DNA binding affinity to c-Src by fluorescence polarization in the presence of ATP. To be noted: ligand linked to 20-mer oligo hybridized to FAM oligo; ATP 100 µM; read-out: binding constant (Kd). Here is the method:
These studies used the HPLC-purified ligand linked to 20-mer oligos, which were prepared for the prior qPCR validations under crude conditions. This construct was hybridized to a fluorescein-containing complementary oligo, and binding constants were determined by changes observed in fluorescence polarization, as previously described.
(a) on-DNA binding affinity to c-Src measured by fluorescence polarization in the presence of ATP (100 µM). […] Peak identity was verified by LC/MS analysis (Figure S9).
(In general: Polarisation of emitted light reports the rotation of a fluorescent probe.)

The target of assay [7] is T1, c-Src. The experiment in a line: radiolabel (32P-ATP) inhibition assay of LYNtide phosphorylation by c-Src. The format is biochemical. The following applies: 32P-ATP 50 µM, biotinylated-LYNtide 50 µM. The method, then: The original six off-DNA hits were tested for inhibition of c-Src activity. For these tests, we used ^32P-ATP as a substrate and detected phosphorylation levels of a biotinylated-LYNtide substrate after adsorption to streptavidin coated membranes. This assay should not be affected by activation of ATP hydrolysis or phosphotransfer to the small molecules. […] There was no apparent correlation of these values to the Km or kcat values in the prior assays as substrates.
Each hit molecule was preincubated with 1.2 nM c-Src at 30 °C for 30 min. The kinase reaction was initiated with the addition of 50 μM LYNtide and 50 μM ATP with 0.15 μCi gamma ^32P ATP at 30 °C for 10 min. The kinase reaction samples (2 µL) were spotted on P81 filter paper consisting of 1.5 cm squares. After air dry, the P81 papers were washed 4 times with 0.5% phosphoric acid for 5 min each. The P81 papers were washed one time with acetone for 5 min. The papers were then allowed to air dry for about 20 min. The dried P81 papers were analyzed by liquid scintillation counter.
Figure 6 Inhibition of hit molecules in a radiolabel assay with ^32P-ATP (50 µM) and biotinylated-LYNtide (50 µM) as substrates.

The target in another assay is Src (Homo sapiens, UniProt P12931). The experiment in a line: HPLC-assessed inhibition of LYNtide phosphorylation. The format is biochemical. The method, then: Kina se R e a c t ion w it h 1 0 nM Sr c
KR with LynT ide N-Alkyne (50uM)
Kina se R e a c t ion w it h 1 0 nM Sr c + Sr c D E L 1 0
300 ~ 25% phosphorylation
KR with LynT ide N-Alkyne (50uM) + Cmpd 10 (100uM)
Figure S11. […] The kinase reaction
30 min, if applicable) in 1x kinase buffer (as outlined in 4.6 NADH coupled assay, with 1mM ATP) for 30

The test system of assay [8] is STAT3 phosphorylation in NME cells. The experiment in a line: cell signaling immunoblot, EGF-stimulated STAT3 phosphorylation (Src-dependent). The format is cell-based, murine. To be noted: 100 µM prior to EGF (50 ng/mL, 30 min). From the text:
Epidermal growth factor (EGF) stimulation of NME cells leads to STAT3 phosphorylation via a Src-dependent process. […] The broad specificity Src family inhibitor, PP2, was used as a positive control. Importantly, phosphorylation of ERK1/2, which occurs via a Src independent pathway, was not reduced. Similarly, autophosphorylation of EGFR at Y1068 was not affected.
NME cells were constructed via stable overexpression of EGFR in normal murine mammary gland (NMuMG) cells as previously described. These cells were cultured in DMEM containing 10% FBS, 10 μg/mL insulin, penicillin, and streptomycin. For cell signaling assays, cells were plated for 24 h prior to removal of the FBS for an additional 24 h. During this serum starvation, PP2 (Sigma, 529576) or SrcDEL10-ester were added as indicated, and cells were subsequently stimulated with EGF (50 ng/mL) (Goldbio, 1150-04) for 30 min. […] Differential binding of these antibodies was detected using their appropriate secondary antibodies.
NME cells were serum deprived for 24 h in the presence of vehicle control (DMSO), Src family inhibitor PP2 (10 µM), or SrcDEL10-ester (100 µM) for the indicated amounts of time. […] Equal protein aliquots were analyzed by immunoblot with the indicated antibodies. […]

The mark [9] stands for this setting: Table S3, ADP-Glo assay of SrcDEL10 derivatives, enzyme Src.

“And” between values parts separate entries of the source, which are not always exact repeats. Equal entries are not always repeated. “Also recorded” adds a separate entry of the source.

“DEDIYGVLP [LYNtide, optimal peptide substrate for Lyn tyrosine kinase, a Src family kinase, reference compound]”: the values for the turnover number (kcat) in the assay with c-Src [1] (ADP-Glo assay), with c-Src [1] (setting [9]) and in the assay with c-Src [5] were 6.5 s⁻¹, 6.47 s⁻¹ and 2.0 s⁻¹, respectively. In addition, the Km in the assay with c-Src [1] (ADP-Glo assay, compound as substrate of c-Src) is 5 µM and 5.2 µM; with c-Src [1] (setting [9]), 5.23 µM; in the assay on c-Src [5], 18 µM. Further, the Vmax with c-Src [1] (setting [9]) turned out to be 1.17 µM/min. The “extent of phosphorylation” value in the assay with c-Src [2] (1 µM c-Src, 200 µM LYNtide, 1 mM ATP, 30 min) is “full phosphorylation; also recorded: fully phosphorylated”. Further, the “ADP generation relative to compound” value with c-Src [3] is on record as “approximately one equivalent”. The “enrichment in qPCR selection assay” value with c-Src [4] is listed as 10,000 fold.
On to `NC(=O)CN(CCc1ccc(O)cc1)C(=O)[C@H](CC(=O)O)NC(=O)c1ccc(CN(CC2CC2)C(=O)CCO)cc1` [SrcDEL10], for which the Kd on c-Src [6] is 7.5 µM. In addition, the “SrcDEL10-phos. fraction by LC/MS” value at c-Src [2] (SrcDEL10 100 µM, 100 µM ATP, 10 µM c-Src, 30 C, 16 hours (Figure S9b)) came out at 54%. For the same compound, the phosphorylated compound formed on c-Src [2] (enzyme 1 µM, SrcDEL10 200 µM, ATP 1 mM, HPLC, LC/MS) is ~ 1%. Besides, the IC50 against c-Src [7] came to 48 µM. Besides, the inhibition at 100 µM against Src is roughly 50%. Moreover, the “LYNtide phosphorylation in presence of compound” value at Src (100 µM SrcDEL10, 50 µM LYNtide, 10 nM Src, 50% without compound) is reported as ~ 25%. Moreover, the “STAT3 phosphorylation levels after EGF stimulation” value in assay [8] is “No reduction”.

One may read the kcat as the number of substrate molecules converted per active site and unit of time at saturation. The Km is the substrate concentration at which the rate is half of its maximum. Usually Vmax stands for the top rate of the reaction or transport when substrate is in excess. Broadly, the Kd is a measure of binding affinity in units of concentration. The IC50 is the concentration that gives 50% inhibition. A lower IC50 goes with greater potency in that assay. Broadly, the inhibition is the percentage by which the read-out fell short of the control. A lower inhibition goes with a weak effect.
